Source: patent publication US20260209152A1, “Substituted Hydroxystilbene Compounds and Derivatives, Synthesis and Uses Thereof” (Kynan Duke IP, LLC, priority 2019, published 2026)
Entries after “also recorded” stand apart in the source; their conditions may differ. Like-named read-outs stand apart in the source and are kept apart here.

Assays:
Bladder RT-112 = experiment: CellTiter Glo cell viability assay; assay type: cell-based, human; conditions: Homo sapiens
Protocol: (§1) 1.7*10^3 cells/well were seeded in quadruplicates in 96-well plate after plating. Drugs were added at 5 μM and 2-fold dilutions over 18 concentrations (0.000038146-5 M concentration range) to generate a dose-response curve. Cell growth was assessed on day 1, 3 and 5 after drug treatments using the CellTiter Glo Luminescence Cell Viability Assay (Promega) according to manufacturer's protocol. Thermo Scientific Varioskan LUX Multimode Microplate instrument was used for plate reading. Data are expressed as mean luminescence (arbitrary units) ±S.D.
(§2) Cell Viability Assays were employed to determine the concentration of Compound 1 (KYN-001) and analogues where the response is reduced by half. For each treatment of cancer cells, 1, 2, 5, 10 and 20 μM solutions of compounds were applied. GraphPad Prism 7 software was used to fit dose response curves. Relative Luminescence Units were plotted against the log values of the doses used and the nonlinear regression model was used for data analysis.
(§3) The protocol for cell proliferation was optimized for Compound 8 (KYN-119) to enable a more accurate assessment of its low IC50 value. In this protocol, 18 dosages (2 fold dilutions ranging from 0.000038146 to 5 μM) were applied to cells seeded in 96-well plates, and Luminescence was measured after 1, 3 and 5 days upon treatments.

Kidney ACHN = experiment: CellTiter Glo cell viability assay; assay type: cell-based, human; conditions: Homo sapiens, ACHN, read-out: IC50
Protocol: as §1, §2, §3

[1] = tested on: Cancer cells including pancreatic, bladder, kidney, colon, breast, lung, liver and osteosarcomas; experiment: CellTiter Glo cell viability assay, panel of cancer cell lines; assay type: cell-based, human; conditions: for Cancer cell viability inhibition, statement in words: SAR discussion based on IC50 values in Tables 1 to 5, compared with 1 [KYN-001]; for Fold reduction in cancer cell viability inhibition vs 1 [KYN-001]: cell lines tested
Protocol: Compounds 1 to 15 were evaluated and their effect on cancer growth examined in cell viability assays on multiple cancer types (Tables 1 to 5). Cancer cells including pancreatic, bladder, kidney, colon, breast, lung, liver and osteosarcomas obtained from ATCC (American Type Culture Collection) were authenticated before use by Short Tandem Repeat genomic analysis (Reid Y, Storts D, Riss T and Minor L. Authentication of Human Cell Lines by STR DNA Profiling Analysis. 2013 May 1. In: Markossian S, Sittampalam G S, Grossman A, et al., editors. Assay Guidance Manual. Bethesda (MD): Eli Lilly & Company and the National Center for Advancing Translational Sciences; 2004.). Experimental protocol for each cancer cell line was verified and optimized according to literature reports before use (Tables 1 to 3).
as §1, §2, §3

Pancreatic MIA PaCa-2 = experiment: CellTiter Glo cell viability assay; assay type: cell-based, human
Protocol: as §1, §2, §3
Day 3 upon treatment of MIA PaCa_2 pancreatic cancer cells, 24 h after plating (11 dilutions), as assessed by CellTiter Glow Assay.

Kidney A-498 = experiment: CellTiter Glo cell viability assay; assay type: cell-based, human
Protocol: as §1, with “Drugs were added at 5 μM and 2-fold dilutions over 18 concentrations (0.000038146-5 M concentration range) to generate a dose-response curve.” left out
as §2, with “For each treatment of cancer cells, 1, 2, 5, 10 and 20 μM solutions of compounds were applied.” left out
The protocol for cell proliferation was optimized for Compound 8 (KYN-119) to enable a more accurate assessment of its low IC50 value. […]

Pancreatic CAPAN-1 = experiment: CellTiter Glo cell viability assay; assay type: cell-based, human; conditions: Homo sapiens, CAPAN-1, 72 h; Table 4: 3 Days of treatment; 18 2-fold dilutions 5-0.00003 μM; Average (1, 8) or single Exp A-D; read-out: IC50
Protocol: as §1, §2, §3

Lung NCI-H1299 = experiment: CellTiter Glo cell viability assay; assay type: cell-based, human; conditions: Homo sapiens, NCI-H1299, 72 h
Protocol: as §1, §2, §3

Kidney CRL-1611 = experiment: CellTiter Glo cell viability assay; assay type: cell-based; conditions: Homo sapiens, 72 h; Day 3 upon drug treatment; 10 dosages 0.0001-20 μM; read-out: IC50
Protocol: as §1, §2, §3

Colon SW_480 = experiment: CellTiter Glo cell viability assay; assay type: cell-based, human; conditions: Homo sapiens, SW480, 72 h; Day 3 upon drug treatment; 10 dosages 0.0001-20 μM; read-out: IC50
Breast MDA-MB-231 = experiment: CellTiter Glo cell viability assay; assay type: cell-based, human; conditions: Homo sapiens, read-out: IC50
Protocol: as §1, §2, §3

Bladder 5637 = experiment: CellTiter Glo cell viability assay; assay type: cell-based, human; conditions: Homo sapiens, 120 h; Day 5 upon drug treatment; 10 dosages 0.0001-20 μM (Compound 8: 18 dosages 0.000038146 to 5 μM); read-out: IC50
Protocol: as §1, §2, §3

Colon HCT_116 = experiment: CellTiter Glo cell viability assay; assay type: cell-based, human; conditions: Homo sapiens, HCT-116, 120 h; Day 5 upon drug treatment; 10 dosages 0.0001-20 μM (Compound 8: 18 dosages 0.000038146 to 5 μM); read-out: IC50
Protocol: as §1, §2, §3

[2] = RT-112, 72 h, Table 4: 3 Days of treatment, 18 2-fold dilutions 5-0.00003 μM, Average (1, 8) or single Exp A-D, read-out: IC50
[3] = 72 h, Table 4: 3 Days of treatment, 18 2-fold dilutions 5-0.00003 μM, Average (1, 8) or single Exp A-D
[4] = Homo sapiens, MIA PaCa-2, Table 5A: 11 dilutions 3-0.00001 μM, single experiments Exp E-K, read-out: IC50
[5] = Table 5A: 11 dilutions 3-0.00001 μM, single experiments Exp E-K, read-out: IC50
[6] = Homo sapiens, A498, 72 h, Table 4: 3 Days of treatment, 18 2-fold dilutions 5-0.00003 μM, Average (1, 8) or single Exp A-D, read-out: IC50
[7] = Homo sapiens, A498, Table 5A: 11 dilutions 3-0.00001 μM, single experiments Exp E-K, read-out: IC50
[8] = RT-112, 72 h, Day 3 upon drug treatment, 10 dosages 0.0001-20 μM, read-out: IC50
[9] = Homo sapiens, MIA PaCa-2, 72 h, Day 3 upon drug treatment, 10 dosages 0.0001-20 μM, read-out: IC50
[10] = MDA-MB-231, 72 h, Day 3 upon drug treatment, 10 dosages 0.0001-20 μM
[11] = RT-112, 120 h, Day 5 upon drug treatment, 10 dosages 0.0001-20 μM (Compound 8: 18 dosages 0.000038146 to 5 μM), read-out: IC50
[12] = 120 h, Day 5 upon drug treatment, 10 dosages 0.0001-20 μM (Compound 8: 18 dosages 0.000038146 to 5 μM)
[13] = MDA-MB-231, 120 h, Day 5 upon drug treatment, 10 dosages 0.0001-20 μM (Compound 8: 18 dosages 0.000038146 to 5 μM)
[14] = Homo sapiens, MIA PaCa-2, 120 h, Day 5 upon drug treatment, 10 dosages 0.0001-20 μM (Compound 8: 18 dosages 0.000038146 to 5 μM), read-out: IC50

## CCCOc1cc(O)cc(/C=C/c2ccc(O)c(OC)c2)c1CC=C(C)C [Compound 9, (E)-3-(4-hydroxy-3-methoxystyryl)-4-(3-methylbut-2-en-1-yl)-5-propoxyphenol]
Bladder RT-112; [2]
  IC50: 22 nM
Kidney ACHN; [3]
  IC50: 609 nM
[1]
  Cancer cell viability inhibition, statement in words: comparable or weaker biological activity
Pancreatic MIA PaCa-2; [4]
  IC50: 100 to 1000 nM
Pancreatic MIA PaCa-2; [5]
  IC50: 115 nM
Kidney A-498; [6]
  IC50: 19 nM
Kidney A-498; [7]
  IC50: 100 to 1000 nM
Kidney A-498; [5]
  IC50: 147 nM

## COc1cc(C=Cc2cc(O)cc(OC(C)C)c2CC=C(C)C)ccc1O [Compound 10, 3-(4-Hydroxy-3-methoxystyryl)-5-isopropoxy-4-(3-methylbut-2-en-1-yl)phenol]
Bladder RT-112; [2]
  IC50: 25.6 nM
Kidney ACHN; [3]
  IC50: 40.9 nM
Pancreatic CAPAN-1
  IC50: 2240 nM
Kidney A-498; [6]
  IC50: 37.1 nM
Kidney A-498; [7]
  IC50: 100 to 1000 nM
Kidney A-498; [5]
  IC50: 126 nM

## COc1cc(/C=C/c2cc(O)cc(OC(F)(F)F)c2CC=C(C)C)ccc1O [Compound 11, (E)-3-(4-hydroxy-3-methoxystyryl)-4-(3-methylbut-2-en-1-yl)-5-(trifluoromethoxy)phenol]
Lung NCI-H1299; Table 4: 3 Days of treatment, 18 2-fold dilutions 5-0.00003 μM, Average (1, 8) or single Exp A-D, read-out: IC50
  IC50: 193 nM
Bladder RT-112; [2]
  IC50: 39.2 nM
Pancreatic MIA PaCa-2; Homo sapiens, MIA PaCa-2, 72 h, Table 4: 3 Days of treatment, 18 2-fold dilutions 5-0.00003 μM, Average (1, 8) or single Exp A-D, read-out: IC50
  IC50: 665 nM
Kidney A-498; [6]
  IC50: 104 nM

## CCOc1cc(C=Cc2cc(O)cc(OC)c2CC=C(C)C)ccc1O [Compound 12, 3-(3-Ethoxy-4-hydroxystyryl)-5-methoxy-4-(3-methylbut-2-en-1-yl)phenol]
Lung NCI-H1299
  IC50: 827 nM
Bladder RT-112; RT-112, 72 h
  IC50: 347 nM
[1]
  Fold reduction in cancer cell viability inhibition vs 1 [KYN-001]: approximately 10
Pancreatic MIA PaCa-2; Homo sapiens, MIA PaCa-2
  IC50: 1090 nM
Kidney A-498; Homo sapiens, A498, 72 h, Table 4: 3 Days of treatment, 18 2-fold dilutions 5-0.00003 μM, Average (1, 8) or single Exp A-D
  IC50: 822 nM

## CCc1cc(/C=C/c2cc(O)cc(OC)c2CC=C(C)C)ccc1O [Compound 13, (E)-3-(3-Ethyl-4-hydroxystyryl)-5-methoxy-4-(3-methylbut-2-en-1-yl)phenol]
Kidney CRL-1611
  IC50: 2120 nM
Bladder RT-112; [8]
  IC50: 949 nM
Colon SW_480
  IC50: 26500 nM
Pancreatic MIA PaCa-2; [9]
  IC50: 3000 nM

## COc1cc(O)cc(/C=C/c2ccc(O)c(SC)c2)c1CC=C(C)C [Compound 14, (E)-3-(4-Hydroxy-3-(methylthio)styryl)-5-methoxy-4-(3-methylbut-2-en-1-yl)phenol]
Kidney CRL-1611
  IC50: 2960 nM
Bladder RT-112; [8]
  IC50: 1330 nM
Breast MDA-MB-231; [10]
  IC50: ~10600 nM
Pancreatic MIA PaCa-2; [9]
  IC50: 3470 nM

## COc1cc(/C=C/c2cc(O)cc(OC)c2CC=C(C)C)cc(C)c1O [Compound 17, (E)-4-(5-Hydroxy-3-methoxy-2-(3-methylbut-2-en-1-yl)styryl)-2-methoxy-6-methylphenol]
Bladder 5637
  IC50: 104 nM
Bladder RT-112; [11]
  IC50: 115 nM
Kidney ACHN; [12]
  IC50: 283 nM
Breast MDA-MB-231; [13]
  IC50: 246 nM
Colon HCT_116
  IC50: 353 nM
[1]
  Cancer cell viability inhibition, statement in words: marginally less potent than the parent compound 1
  Fold reduction in cancer cell viability inhibition vs 1 [KYN-001]: approximately 3
Pancreatic MIA PaCa-2; [14]
  IC50: 182 nM
Pancreatic MIA PaCa-2; [4]
  IC50: 1150 nM
Kidney A-498; [7]
  IC50: 100 to 1000 nM
Kidney A-498; [5]
  IC50: 142 nM

## COc1cc(/C=C/c2cc(O)cc(OC)c2CC=C(C)C)ccc1[N+](=O)[O-] [Compound 22, (E)-3-Methoxy-5-(3-methoxy-4-nitrostyryl)-4-(3-methylbut-2-en-1-yl)phenol]
Breast MDA-MB-231; [13]
  IC50: 6200 nM
[1]
  Cancer cell viability inhibition, statement in words: Loss of the anti-proliferative effect

## COc1cc(/C=C/c2cc(O)cc(OC)c2CC=C(C)C)ccc1N [Compound 23, (E)-3-(4-Amino-3-methoxystyryl)-5-methoxy-4-(3-methylbut-2-en-1-yl)phenol]
Bladder 5637
  IC50: 65.3 nM
Bladder RT-112; [11]
  IC50: 68.2 nM
Kidney ACHN; [12]
  IC50: 260 nM
Breast MDA-MB-231; [13]
  IC50: 138 nM
Colon HCT_116
  IC50: 474 nM
[1]
  Cancer cell viability inhibition, statement in words: marginally less potent than the parent compound 1; also recorded: activity similar to but overall reduced
Pancreatic MIA PaCa-2; [14]
  IC50: 180 nM

## COc1cc(/C=C/c2cc(O)cc(OC)c2CC=C(C)C)ccc1NC(C)=O [Compound 29, (E)-N-(4-(5-hydroxy-3-methoxy-2-(3-methylbut-2-en-1-yl)styryl)-2-methoxyphenyl)acetamide]
Bladder 5637
  IC50: 67.4 nM
Bladder RT-112; [11]
  IC50: 76.4 nM
Kidney ACHN; [12]
  IC50: 281 nM
Breast MDA-MB-231; [13]
  IC50: 155 nM
Colon HCT_116
  IC50: 627 nM
[1]
  Cancer cell viability inhibition, statement in words: marginally less potent than the parent compound 1
Pancreatic MIA PaCa-2; [14]
  IC50: 185 nM

## COC(=O)CNc1ccc(/C=C/c2cc(O)cc(OC)c2CC=C(C)C)cc1OC [Compound 33, Methyl (E)-(4-(5-hydroxy-3-methoxy-2-(3-methylbut-2-en-1-yl)styryl)-2-methoxyphenyl)glycinate]
Bladder 5637
  IC50: 85.9 nM
Bladder RT-112; [11]
  IC50: 95.5 nM
Kidney ACHN; [12]
  IC50: 2840 nM
Breast MDA-MB-231; [13]
  IC50: 169 nM
Colon HCT_116
  IC50: 680 nM
[1]
  Cancer cell viability inhibition, statement in words: marginally less potent than the parent compound 1
Pancreatic MIA PaCa-2; [14]
  IC50: 96.8 nM
Pancreatic MIA PaCa-2; [4]
  IC50: 2040 nM

## COc1cc(/C=C/c2cc(O)cc(OC)c2Br)ccc1O [Compound 45, (E)-4-Bromo-3-(4-hydroxy-3-methoxystyryl)-5-methoxyphenol]
Breast MDA-MB-231; [10]
  IC50: ~10300 nM
Colon SW_480
  IC50: 10800 nM
Pancreatic MIA PaCa-2; [9]
  IC50: 20400 nM
